{"source": "the supplement of paper PMC10733146", "assay_in_all_cases": "viability relative to DMSO control (fraction); higher = less drug effect (more viable cells)", "settings_in_all_cases": "48 h", "key": {"[1]": {"test_system": "primary CLL patient cells (S043)", "method_in_brief": "(§1)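 The cells were primary mononuclear tumour cells, either fresh or cryopreserved, isolated by Ficoll from blood or bone marrow or derived from processed lymph node. Each well of a 384-well plate received 4 × 10^4 cells onto compounds pre-plated at five concentrations, with one well per concentration. The medium was RPMI-1640 with penicillin/streptomycin, L-glutamine and human serum, and plates stood at 37 °C and 5% CO2 for 48 h. Viability is reported as CellTiter-Glo luminescence relative to the median of 16 inner DMSO wells.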"}, "[2]": {"test_system": "primary AML patient cells (S081)", "method_in_brief": "as §1"}, "[3]": {"test_system": "primary AML patient cells (S002)", "method_in_brief": "as §1"}, "[4]": {"test_system": "primary MCL patient cells (S063)", "method_in_brief": "as §1"}, "[5]": {"test_system": "primary AML patient cells (S025)", "method_in_brief": "as §1"}, "[6]": {"test_system": "primary AML patient cells (S012)", "method_in_brief": "as §1"}, "[7]": {"test_system": "primary MCL patient cells (S068)", "method_in_brief": "as §1"}, "[8]": {"test_system": "primary AML patient cells (S056)", "method_in_brief": "as §1"}, "[9]": {"test_system": "primary AML patient cells (S009)", "method_in_brief": "as §1"}, "[10]": {"test_system": "primary AML patient cells (S079)", "method_in_brief": "as §1"}, "[11]": {"test_system": "primary AML patient cells (S017)", "method_in_brief": "as §1"}, "[12]": {"test_system": "primary AML patient cells (S055)", "method_in_brief": "as §1"}, "[13]": {"test_system": "primary ALL patient cells (S048)", "method_in_brief": "as §1"}, "[14]": {"test_system": "primary AML patient cells (S021)", "method_in_brief": "as §1"}, "[15]": {"test_system": "primary T-PLL patient cells (S008)", "method_in_brief": "as §1"}, "[16]": {"test_system": "primary AML patient cells (S006)", "method_in_brief": "as §1"}, "[17]": {"test_system": "primary MCL patient cells (S053)", "method_in_brief": "as §1"}, "[18]": {"test_system": "primary BL patient cells (S005)", "method_in_brief": "as §1"}, "[19]": {"test_system": "primary AML patient cells (S072)", "method_in_brief": "as §1"}, "[20]": {"test_system": "primary FL patient cells (S022)", "method_in_brief": "as §1"}}, "data": [{"smiles": "CCc1nc(C(N)=O)c(Nc2ccc(N3CCC(N4CCN(C)CC4)CC3)c(OC)c2)nc1NC1CCOCC1", "note": "[Gilteritinib]", "values": [{"measurement": "viability", "setting": "[1]; 0.024 µM", "result": 1.04}, {"measurement": "viability", "setting": "[1]; 0.12 µM", "result": 1.01}, {"measurement": "viability", "setting": "[1]; 0.6 µM", "result": 0.7}, {"measurement": "viability", "setting": "[1]; 3 µM", "result": 0.519}, {"measurement": "viability", "setting": "[1]; 15 µM", "result": 0.393}, {"measurement": "viability", "setting": "[2]; 0.024 µM", "result": 0.968}, {"measurement": "viability", "setting": "[2]; 0.12 µM", "result": 0.969}, {"measurement": "viability", "setting": "[2]; 0.6 µM", "result": 0.947}, {"measurement": "viability", "setting": "[2]; 3 µM", "result": 0.708}, {"measurement": "viability", "setting": "[2]; 15 µM", "result": 0.599}, {"measurement": "viability", "setting": "[3]; 0.024 µM", "result": 1.13}, {"measurement": "viability", "setting": "[3]; 0.12 µM", "result": 1.01}, {"measurement": "viability", "setting": "[3]; 0.6 µM", "result": 0.766}, {"measurement": "viability", "setting": "[3]; 3 µM", "result": 0.592}, {"measurement": "viability", "setting": "[3]; 15 µM", "result": 0.456}, {"measurement": "viability", "setting": "[4]; 0.024 µM", "result": 1.11}, {"measurement": "viability", "setting": "[4]; 0.12 µM", "result": 1.13}, {"measurement": "viability", "setting": "[4]; 0.6 µM", "result": 0.706}, {"measurement": "viability", "setting": "[4]; 3 µM", "result": 0.42}, {"measurement": "viability", "setting": "[4]; 15 µM", "result": 0.209}, {"measurement": "viability", "setting": "[5]; 0.024 µM", "result": 0.888}, {"measurement": "viability", "setting": "[5]; 0.12 µM", "result": 0.862}, {"measurement": "viability", "setting": "[5]; 0.6 µM", "result": 0.751}, {"measurement": "viability", "setting": "[5]; 3 µM", "result": 0.791}, {"measurement": "viability", "setting": "[5]; 15 µM", "result": 0.485}, {"measurement": "viability", "setting": "[6]; 0.024 µM", "result": 0.956}, {"measurement": "viability", "setting": "[6]; 0.12 µM", "result": 0.97}, {"measurement": "viability", "setting": "[6]; 0.6 µM", "result": 1}, {"measurement": "viability", "setting": "[6]; 3 µM", "result": 0.972}, {"measurement": "viability", "setting": "[6]; 15 µM", "result": 0.928}, {"measurement": "viability", "setting": "[7]; 0.024 µM", "result": 1.63}, {"measurement": "viability", "setting": "[7]; 0.12 µM", "result": 2}, {"measurement": "viability", "setting": "[7]; 0.6 µM", "result": 1.89}, {"measurement": "viability", "setting": "[7]; 3 µM", "result": 1.27}, {"measurement": "viability", "setting": "[7]; 15 µM", "result": 0.689}, {"measurement": "viability", "setting": "[8]; 0.024 µM", "result": 0.404}, {"measurement": "viability", "setting": "[8]; 0.12 µM", "result": 0.385}, {"measurement": "viability", "setting": "[8]; 0.6 µM", "result": 0.339}, {"measurement": "viability", "setting": "[8]; 3 µM", "result": 0.497}, {"measurement": "viability", "setting": "[8]; 15 µM", "result": 0.644}, {"measurement": "viability", "setting": "[9]; 0.024 µM", "result": 0.945}, {"measurement": "viability", "setting": "[9]; 0.12 µM", "result": 0.865}, {"measurement": "viability", "setting": "[9]; 0.6 µM", "result": 0.9}, {"measurement": "viability", "setting": "[9]; 3 µM", "result": 0.675}, {"measurement": "viability", "setting": "[9]; 15 µM", "result": 0.986}, {"measurement": "viability", "setting": "[10]; 0.024 µM", "result": 1.26}, {"measurement": "viability", "setting": "[10]; 0.12 µM", "result": 0.887}, {"measurement": "viability", "setting": "[10]; 0.6 µM", "result": 0.735}, {"measurement": "viability", "setting": "[10]; 3 µM", "result": 0.626}, {"measurement": "viability", "setting": "[10]; 15 µM", "result": 0.469}, {"measurement": "viability", "setting": "[11]; 0.024 µM", "result": 0.987}, {"measurement": "viability", "setting": "[11]; 0.12 µM", "result": 1.09}, {"measurement": "viability", "setting": "[11]; 0.6 µM", "result": 0.606}, {"measurement": "viability", "setting": "[11]; 3 µM", "result": 0.5}, {"measurement": "viability", "setting": "[11]; 15 µM", "result": 0.47}, {"measurement": "viability", "setting": "[12]; 0.024 µM", "result": 1.04}, {"measurement": "viability", "setting": "[12]; 0.12 µM", "result": 1.03}, {"measurement": "viability", "setting": "[12]; 0.6 µM", "result": 0.573}, {"measurement": "viability", "setting": "[12]; 3 µM", "result": 0.638}, {"measurement": "viability", "setting": "[12]; 15 µM", "result": 0.821}, {"measurement": "viability", "setting": "[13]; 0.024 µM", "result": 0.876}, {"measurement": "viability", "setting": "[13]; 0.12 µM", "result": 0.819}, {"measurement": "viability", "setting": "[13]; 0.6 µM", "result": 0.646}, {"measurement": "viability", "setting": "[13]; 3 µM", "result": 0.717}, {"measurement": "viability", "setting": "[13]; 15 µM", "result": 0.531}, {"measurement": "viability", "setting": "[14]; 0.024 µM", "result": 1.04}, {"measurement": "viability", "setting": "[14]; 0.12 µM", "result": 1.07}, {"measurement": "viability", "setting": "[14]; 0.6 µM", "result": 0.72}, {"measurement": "viability", "setting": "[14]; 3 µM", "result": 0.754}, {"measurement": "viability", "setting": "[14]; 15 µM", "result": 0.736}, {"measurement": "viability", "setting": "[15]; 0.024 µM", "result": 0.952}, {"measurement": "viability", "setting": "[15]; 0.12 µM", "result": 0.909}, {"measurement": "viability", "setting": "[15]; 0.6 µM", "result": 0.886}, {"measurement": "viability", "setting": "[15]; 3 µM", "result": 0.787}, {"measurement": "viability", "setting": "[15]; 15 µM", "result": 0.935}, {"measurement": "viability", "setting": "[16]; 0.024 µM", "result": 0.393}, {"measurement": "viability", "setting": "[16]; 0.12 µM", "result": 0.381}, {"measurement": "viability", "setting": "[16]; 0.6 µM", "result": 0.382}, {"measurement": "viability", "setting": "[16]; 3 µM", "result": 0.729}, {"measurement": "viability", "setting": "[16]; 15 µM", "result": 0.563}, {"measurement": "viability", "setting": "[17]; 0.024 µM", "result": 1.07}, {"measurement": "viability", "setting": "[17]; 0.12 µM", "result": 1.02}, {"measurement": "viability", "setting": "[17]; 0.6 µM", "result": 0.7}, {"measurement": "viability", "setting": "[17]; 3 µM", "result": 0.707}, {"measurement": "viability", "setting": "[17]; 15 µM", "result": 0.733}, {"measurement": "viability", "setting": "[18]; 0.024 µM", "result": 0.957}, {"measurement": "viability", "setting": "[18]; 0.12 µM", "result": 0.96}, {"measurement": "viability", "setting": "[18]; 0.6 µM", "result": 0.739}, {"measurement": "viability", "setting": "[18]; 3 µM", "result": 0.667}, {"measurement": "viability", "setting": "[18]; 15 µM", "result": 0.536}, {"measurement": "viability", "setting": "[19]; 0.024 µM", "result": 0.983}, {"measurement": "viability", "setting": "[19]; 0.12 µM", "result": 0.882}, {"measurement": "viability", "setting": "[19]; 0.6 µM", "result": 0.54}, {"measurement": "viability", "setting": "[19]; 3 µM", "result": 0.368}, {"measurement": "viability", "setting": "[19]; 15 µM", "result": 0.285}, {"measurement": "viability", "setting": "[20]; 0.024 µM", "result": 1.01}, {"measurement": "viability", "setting": "[20]; 0.12 µM", "result": 0.925}, {"measurement": "viability", "setting": "[20]; 0.6 µM", "result": 0.907}, {"measurement": "viability", "setting": "[20]; 3 µM", "result": 0.789}, {"measurement": "viability", "setting": "[20]; 15 µM", "result": 0.358}]}]}
